Measurements published in PubChem BioAssay AID1963427 (Molecular Pharmacology Branch, DTP, NCI, 2024).
pIC50: −log10 of the molar value.

System: 317291-083-R-J1-PDC complex spheroid growth
Assay: Anticancer human tumor 317291-083-R-J1-PDC patient-derived soft tissue sarcoma cell line growth inhibition [Asc]
Conditions: for viability, T/C: stronger effect = lower value; active = viability on the fitted dose curve at most 10% of control; inactive = the rest
How it was run: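 Complex spheroids combining tumor cells with HUVEC endothelial cells and human MSCs, at 37 degrees C, 5% CO2; agents tested alone or combined, half-log dilutions from at or near clinical Cmax, or 10 microM if Cmax unknown.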

[1] = curve of first compound, second compound 0.00949 µM
[2] = curve of first compound, second compound 0.03 µM
[3] = curve of first compound, second compound 0.0949 µM
[4] = curve of first compound, second compound 0.3 µM
[5] = curve of first compound, second compound 0.949 µM
[6] = curve of first compound, second compound 3 µM
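Note: compound exposure lasted seven days after spheroids formed for three days.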
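Throughout, for viability, T/C: 100% = DMSO vehicle control wells.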

NC(=O)C(=Cn1cnc(-c2cc(C(F)(F)F)cc(C(F)(F)F)c2)n1)c1cncnc1 + CCN1C(C(=O)NC23CCC(C(=O)O)(CC2)CC3)C(c2cccc(Cl)c2F)C2(C(=O)Nc3cc(Cl)ccc32)C12CCCCC2
7.61: pIC50 [4]
inactive: viability, T/C (second compound 0.00949 µM, first compound 0.000949 µM) 97.9% | viability, T/C (second compound 0.00949 µM, first compound 0.003 µM) 83.4% | viability, T/C (second compound 0.00949 µM, first compound 0.00949 µM) 79.2% | viability, T/C (second compound 0.00949 µM, first compound 0.03 µM) 57.7% | viability, T/C (second compound 0.00949 µM, first compound 0.0949 µM) 10% | viability, T/C (second compound 0.03 µM, first compound 0.000949 µM) 118% | viability, T/C (second compound 0.03 µM, first compound 0.003 µM) 87.6% | viability, T/C (second compound 0.03 µM, first compound 0.00949 µM) 84.8% | viability, T/C (second compound 0.03 µM, first compound 0.03 µM) 38.2% | viability, T/C (second compound 0.03 µM, first compound 0.0949 µM) 5.81% | viability, T/C (second compound 0.0949 µM, first compound 0.000949 µM) 94.6% | viability, T/C (second compound 0.0949 µM, first compound 0.003 µM) 109% | viability, T/C (second compound 0.0949 µM, first compound 0.00949 µM) 72.4% | viability, T/C (second compound 0.0949 µM, first compound 0.03 µM) 46.4% | viability, T/C (second compound 0.0949 µM, first compound 0.0949 µM) 10.3% | viability, T/C (second compound 0.3 µM, first compound 0.000949 µM) 95.1% | viability, T/C (second compound 0.3 µM, first compound 0.003 µM) 106% | viability, T/C (second compound 0.3 µM, first compound 0.00949 µM) 74.6% | viability, T/C (second compound 0.3 µM, first compound 0.03 µM) 47.4% | viability, T/C (second compound 0.3 µM, first compound 0.0949 µM) 7.13% | viability, T/C (second compound 0.949 µM, first compound 0.000949 µM) 110% | viability, T/C (second compound 0.949 µM, first compound 0.003 µM) 90.3% | viability, T/C (second compound 0.949 µM, first compound 0.00949 µM) 69.6% | viability, T/C (second compound 0.949 µM, first compound 0.03 µM) 55.6% | viability, T/C (second compound 0.949 µM, first compound 0.0949 µM) 4.34% | viability, T/C (second compound 3 µM, first compound 0.000949 µM) 100% | viability, T/C (second compound 3 µM, first compound 0.003 µM) 87.2% | viability, T/C (second compound 3 µM, first compound 0.00949 µM) 76.8% | viability, T/C (second compound 3 µM, first compound 0.03 µM) 27.7% | viability, T/C (second compound 3 µM, first compound 0.0949 µM) 21.7%
7.67: pIC50 [2]
7.74: pIC50 [6]
7.47: pIC50 [1]
active: viability, T/C (second compound 0.00949 µM, first compound 0.3 µM) 2.56% | viability, T/C (second compound 0.03 µM, first compound 0.3 µM) 2.23% | viability, T/C (second compound 0.0949 µM, first compound 0.3 µM) 2.94% | viability, T/C (second compound 0.3 µM, first compound 0.3 µM) 2.81% | viability, T/C (second compound 0.949 µM, first compound 0.3 µM) 2.96% | viability, T/C (second compound 3 µM, first compound 0.3 µM) 2.15%
7.62: pIC50 [3]
7.63: pIC50 [5]

C#Cc1c(F)ccc2cc(O)cc(-c3ncc4c(N5CC6CCC(C5)N6)nc(OCC56CCCN5CC(F)C6)nc4c3F)c12 (stereo not drawn) + CCN1C(C(=O)NC23CCC(C(=O)O)(CC2)CC3)C(c2cccc(Cl)c2F)C2(C(=O)Nc3cc(Cl)ccc32)C12CCCCC2
< 5.00: pIC50 [1] | pIC50 [2] | pIC50 [3] | pIC50 [4] | pIC50 [5] | pIC50 [6]
inactive: viability, T/C (second compound 0.00949 µM, first compound 0.0316 µM) 129% | viability, T/C (second compound 0.00949 µM, first compound 0.1 µM) 78.8% | viability, T/C (second compound 0.00949 µM, first compound 0.316 µM) 125% | viability, T/C (second compound 0.00949 µM, first compound 1 µM) 153% | viability, T/C (second compound 0.00949 µM, first compound 3.16 µM) 113% | viability, T/C (second compound 0.00949 µM, first compound 10 µM) 66.1% | viability, T/C (second compound 0.03 µM, first compound 0.0316 µM) 106% | viability, T/C (second compound 0.03 µM, first compound 0.1 µM) 98.3% | viability, T/C (second compound 0.03 µM, first compound 0.316 µM) 106% | viability, T/C (second compound 0.03 µM, first compound 1 µM) 112% | viability, T/C (second compound 0.03 µM, first compound 3.16 µM) 78.2% | viability, T/C (second compound 0.03 µM, first compound 10 µM) 80.2% | viability, T/C (second compound 0.0949 µM, first compound 0.0316 µM) 108% | viability, T/C (second compound 0.0949 µM, first compound 0.1 µM) 101% | viability, T/C (second compound 0.0949 µM, first compound 0.316 µM) 104% | viability, T/C (second compound 0.0949 µM, first compound 1 µM) 99.6% | viability, T/C (second compound 0.0949 µM, first compound 3.16 µM) 118% | viability, T/C (second compound 0.0949 µM, first compound 10 µM) 79.4% | viability, T/C (second compound 0.3 µM, first compound 0.0316 µM) 101% | viability, T/C (second compound 0.3 µM, first compound 0.1 µM) 97.6% | viability, T/C (second compound 0.3 µM, first compound 0.316 µM) 120% | viability, T/C (second compound 0.3 µM, first compound 1 µM) 126% | viability, T/C (second compound 0.3 µM, first compound 3.16 µM) 101% | viability, T/C (second compound 0.3 µM, first compound 10 µM) 69.9% | viability, T/C (second compound 0.949 µM, first compound 0.0316 µM) 104% | viability, T/C (second compound 0.949 µM, first compound 0.1 µM) 108% | viability, T/C (second compound 0.949 µM, first compound 0.316 µM) 90.2% | viability, T/C (second compound 0.949 µM, first compound 1 µM) 98.7% | viability, T/C (second compound 0.949 µM, first compound 3.16 µM) 100% | viability, T/C (second compound 0.949 µM, first compound 10 µM) 78.4% | viability, T/C (second compound 3 µM, first compound 0.0316 µM) 72.3% | viability, T/C (second compound 3 µM, first compound 0.1 µM) 74.1% | viability, T/C (second compound 3 µM, first compound 0.316 µM) 77.2% | viability, T/C (second compound 3 µM, first compound 1 µM) 86.6% | viability, T/C (second compound 3 µM, first compound 3.16 µM) 69.9% | viability, T/C (second compound 3 µM, first compound 10 µM) 53.6%

Cc1c(S(C)(=O)=O)c(-c2cc(F)cc(N3CCN(c4ccc(NS(=O)(=O)c5ccc(NC(CCN6CCC(C(=O)OCCCP(=O)(O)O)CC6)CSc6ccccc6)c(S(=O)(=O)C(F)(F)F)c5)cc4)CC3)c2)c(-c2ccc(Cl)cc2)n1C(C)C (stereo not drawn)
inactive: viability, T/C (compound 0.0316 µM) 98% [middle of 7 runs] | viability, T/C (compound 0.316 µM) 93.2% [middle of 7 runs] | viability, T/C (compound 3.16 µM) 81% [middle of 7 runs]
< 5.00: pIC50 (compound alone, run of 11/07/2022)
